One experiment deals with jack bean urease (Canavalia ensiformis, UniProt P07374). Conditions: cited from earlier work.
The target in experiment [1] is squash ascorbic acid oxidase (Cucurbita pepo var. melopepo, UniProt P37064). Conditions: cited from earlier work.
In experiment [2] the target is T1, pig heart D-amino acid oxidase (Sus scrofa, UniProt P00371).
T1 construct: host or cells: pig heart (so in the source)
The note with it: 2.7×10^−3 Molar (160 ppm); cited from earlier work.

Another experiment relates to turnip peroxidase. The note with it: 2.7×10^−4 Molar (80 ppm); cited from earlier work.
A short description of experiment [3]: Non-enzymatic oxidation of NADH2 by aged NDGA solutions. On the procedure:
Oxidation of reduced nicotinamide-adenine dinucleotide by nordihydroguaiaretic acid in the presence of PO4 buffer at pH 7.0 occurs at a slow rate, (See Burk and Woods (1963) and references to findings of […]. and […]. reported therein). Although this oxidation was very small under the conditions of experiment, an interaction correction factor was determined and applied to all reduced nicotinamide-adenine dinucleotide-nordihydroguaiaretic acid-mycloperoxidase assay reactions. [table] The effect of aging nordihydroguaiaretic acid solutions (0.5 mg. nordihydroguaiaretic acid dissolved in 0.02 ml. of ethyl alcohol plus 0.98 ml. of 0.15 Molar Na2HPO4.KH2PO4 buffer, pH 7.0) on the oxidation of reduced nicotinamide-adenine dinucleotide by nordihydroguaiaretic acid is shown above in Table VI. At 35° C., the latter undergoes a slow visible auto-oxidation change, from a near colorless solution (the reduced form of the orthoquinone) immediately after preparation, to a yellow brown colloidal suspension (probably the quinone form) with the yellow-brown material tending to precipitate slowly during the course of several hours. The sedimentation of nordihydroguaiaretic acid and its accumulation and adherence upon the inner glass surface of test tubes was avoided by shaking the solution periodically. The slow oxidation of reduced nicotinamide-adenine dinucleotide by nordihydroguaiaretic acid during the first forty-five (45) minutes can be more than twice the rate of subsequent time periods. Once the lowest rate of oxidation of reduced nicotinamide-adenine dinucleotide is achieved by the aging of nordihydroguaiaretic acid solutions, it remains constant for at least eight (8) hours.

A further experiment concerns caries. Conditions: hamsters in vivo; cited from earlier work.

Sequence of squash ascorbic acid oxidase (P37064 whole entry): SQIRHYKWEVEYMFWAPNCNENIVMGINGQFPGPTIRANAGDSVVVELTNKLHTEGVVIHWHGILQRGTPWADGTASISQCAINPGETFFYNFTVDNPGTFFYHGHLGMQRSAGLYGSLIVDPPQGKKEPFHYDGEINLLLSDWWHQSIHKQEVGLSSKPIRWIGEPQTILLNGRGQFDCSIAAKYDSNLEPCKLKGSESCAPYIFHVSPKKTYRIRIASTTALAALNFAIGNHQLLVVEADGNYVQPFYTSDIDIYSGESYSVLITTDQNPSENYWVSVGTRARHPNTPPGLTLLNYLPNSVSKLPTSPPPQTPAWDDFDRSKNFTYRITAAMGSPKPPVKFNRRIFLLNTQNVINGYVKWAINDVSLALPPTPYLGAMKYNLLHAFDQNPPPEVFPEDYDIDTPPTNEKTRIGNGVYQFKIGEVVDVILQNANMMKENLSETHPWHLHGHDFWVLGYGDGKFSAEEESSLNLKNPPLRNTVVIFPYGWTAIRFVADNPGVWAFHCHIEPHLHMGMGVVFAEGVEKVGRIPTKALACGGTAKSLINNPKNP
Sequence of jack bean urease (P07374 whole entry, looked up): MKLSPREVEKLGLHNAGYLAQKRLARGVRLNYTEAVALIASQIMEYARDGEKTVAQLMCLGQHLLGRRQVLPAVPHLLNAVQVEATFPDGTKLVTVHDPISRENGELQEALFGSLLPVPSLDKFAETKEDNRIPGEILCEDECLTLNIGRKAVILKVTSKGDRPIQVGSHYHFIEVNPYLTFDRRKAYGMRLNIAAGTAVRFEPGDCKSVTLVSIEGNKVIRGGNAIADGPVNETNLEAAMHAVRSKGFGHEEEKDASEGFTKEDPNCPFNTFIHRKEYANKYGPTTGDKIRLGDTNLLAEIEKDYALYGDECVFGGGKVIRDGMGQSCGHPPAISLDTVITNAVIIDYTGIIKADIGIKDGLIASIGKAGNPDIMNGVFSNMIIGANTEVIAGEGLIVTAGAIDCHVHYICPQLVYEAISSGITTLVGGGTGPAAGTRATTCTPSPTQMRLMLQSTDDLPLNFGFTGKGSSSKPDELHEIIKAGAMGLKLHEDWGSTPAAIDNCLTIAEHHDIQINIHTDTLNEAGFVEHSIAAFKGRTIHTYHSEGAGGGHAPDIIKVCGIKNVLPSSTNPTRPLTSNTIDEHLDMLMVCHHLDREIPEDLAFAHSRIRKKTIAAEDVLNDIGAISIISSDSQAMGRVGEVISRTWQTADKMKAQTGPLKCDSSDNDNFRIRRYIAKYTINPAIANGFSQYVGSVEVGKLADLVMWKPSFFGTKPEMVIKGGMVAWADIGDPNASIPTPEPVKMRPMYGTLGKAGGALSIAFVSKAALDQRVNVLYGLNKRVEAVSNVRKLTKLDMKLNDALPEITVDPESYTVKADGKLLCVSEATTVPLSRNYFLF
T1 sequence (P00371 whole entry): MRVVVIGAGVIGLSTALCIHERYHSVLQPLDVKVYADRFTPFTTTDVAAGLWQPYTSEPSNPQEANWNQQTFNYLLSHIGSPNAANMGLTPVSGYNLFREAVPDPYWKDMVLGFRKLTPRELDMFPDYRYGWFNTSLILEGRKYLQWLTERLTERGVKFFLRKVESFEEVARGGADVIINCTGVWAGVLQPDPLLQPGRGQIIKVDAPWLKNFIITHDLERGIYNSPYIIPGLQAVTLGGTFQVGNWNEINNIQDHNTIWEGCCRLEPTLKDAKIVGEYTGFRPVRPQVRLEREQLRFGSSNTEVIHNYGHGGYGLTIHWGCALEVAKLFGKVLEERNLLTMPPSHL

As for `CC(Cc1ccc(O)c(O)c1)C(C)Cc1ccc(O)c(O)c1` (stereo not drawn) [NDGA, beta, gamma-dimethyl-alpha, ortho-bis (3,4 dihydroxiphenyl) butane], the “inhibition of jack bean urease” value on jack bean urease was 99%. In addition, in experiment [1], the “inhibition of squash ascorbic acid oxidase” value is recorded as 100%. The “inhibition of pig heart D-amino acid oxidase” value in experiment [2] is reported as 99%. Moreover, the “inhibition of turnip peroxidase” value in the experiment on turnip peroxidase is recorded as 71%. Also, the “Rate of Oxidation of NADH2” value in experiment [3] (NDGA solution aged 10 minutes at 35° C., pH 7.0, Experiment 3) was “.017 Optical Density (O.D.) Units per 100 Seconds”; in experiment [3] (NDGA solution aged 15 minutes, Experiment 2), “.020 Optical Density (O.D.) Units per 100 Seconds”; in experiment [3] (NDGA solution aged 45 minutes, Experiment 1), “.027 Optical Density (O.D.) Units per 100 Seconds”; in experiment [3] (NDGA solution aged 60 minutes, Experiment 3), “.013 Optical Density (O.D.) Units per 100 Seconds”; in experiment [3] (NDGA solution aged 110 minutes, Experiment 1) it was “.011 Optical Density (O.D.) Units per 100 Seconds”; in experiment [3] (NDGA solution aged 120 minutes, Experiment 3) it was “.011 Optical Density (O.D.) Units per 100 Seconds”. For the same molecule, the “Rate of Oxidation of NADH2” value in experiment [3] (NDGA solution aged 140 minutes, Experiment 2) was “.014 Optical Density (O.D.) Units per 100 Seconds”; in experiment [3] (NDGA solution aged 175 minutes, Experiment 1), “.012 Optical Density (O.D.) Units per 100 Seconds”; in experiment [3] (NDGA solution aged 180 minutes, Experiment 3), “.012 Optical Density (O.D.) Units per 100 Seconds”; in experiment [3] (NDGA solution aged 215 minutes, Experiment 2), “.014 Optical Density (O.D.) Units per 100 Seconds”; in experiment [3] (NDGA solution aged 240 minutes, Experiment 3) it was “.012 Optical Density (O.D.) Units per 100 Seconds”; in experiment [3] (NDGA solution aged 270 minutes, Experiment 1), “.011 Optical Density (O.D.) Units per 100 Seconds”. Moreover, the “Rate of Oxidation of NADH2” value is “.014 Optical Density (O.D.) Units per 100 Seconds” in experiment [3] (NDGA solution aged 285 minutes, Experiment 2); “.011 Optical Density (O.D.) Units per 100 Seconds” in experiment [3] (NDGA solution aged 323 minutes, Experiment 1); “.011 Optical Density (O.D.) Units per 100 Seconds” in experiment [3] (NDGA solution aged 380 minutes, Experiment 3); “.011 Optical Density (O.D.) Units per 100 Seconds” in experiment [3] (NDGA solution aged 440 minutes, Experiment 3); “.010 Optical Density (O.D.) Units per 100 Seconds” in experiment [3] (NDGA solution aged 485 minutes, Experiment 3). For the same molecule, the anti-caries effect result in the experiment with caries was “effective experimental anti-caries agent”.

These data come from patent US6796312B2, “Process and apparatus for the removal of toxic components of tobacco smoke and the standardization of the health hazards related to those components” (priority 2001, dated 2004).
